Measurements from US20090099029A1, “Methods and substrates for conducting assays” (Invitrogen Corporation, priority 2005, published 2009).

system: 39 kinases (Table 4); assay: not given; settings: known general specificities of the inhibitors; cited from earlier work

Compound | General Specificity
N#C/C(=C/c1ccc(O)c(O)c1)C(=O)NCc1ccccc1 [AG 490] | Tyrosine
O=c1c(-c2ccc(O)cc2)coc2cc(O)cc(O)c12 [Genistein] | Tyrosine
Cn1cc(C2=C(c3cn(CCCSC(=N)N)c4ccccc34)C(=O)NC2=O)c2ccccc21 [Ro-31-8220] | Serine/threonine
CC(C)(C)n1nc(-c2ccc(Cl)cc2)c2c(N)ncnc21 [PP2] | Tyrosine
O=S(=O)(NCCNC/C=C/c1ccc(Br)cc1)c1cccc2cnccc12 [H-89] | Serine/threonine
CN[C@@H]1C[C@H]2O[C@@](C)([C@@H]1OC)n1c3ccccc3c3c4c(c5c6ccccc6n2c5c31)C(=O)NC4 [Staurosporine] | Broad

biological target: T1, kinases of Table 5 (Homo sapiens, UniProt Q99759); assay: Further analysis of a plurality of inhibitors and a plurality of kinases (Table 5 inhibition results); format: biochemical; parameters: scale not given here; settings: kinase MAP3K3 (Part I, plate A1, Domain 0); inhibitor 21.5 uM
T1 sequence (Q99759 1-626): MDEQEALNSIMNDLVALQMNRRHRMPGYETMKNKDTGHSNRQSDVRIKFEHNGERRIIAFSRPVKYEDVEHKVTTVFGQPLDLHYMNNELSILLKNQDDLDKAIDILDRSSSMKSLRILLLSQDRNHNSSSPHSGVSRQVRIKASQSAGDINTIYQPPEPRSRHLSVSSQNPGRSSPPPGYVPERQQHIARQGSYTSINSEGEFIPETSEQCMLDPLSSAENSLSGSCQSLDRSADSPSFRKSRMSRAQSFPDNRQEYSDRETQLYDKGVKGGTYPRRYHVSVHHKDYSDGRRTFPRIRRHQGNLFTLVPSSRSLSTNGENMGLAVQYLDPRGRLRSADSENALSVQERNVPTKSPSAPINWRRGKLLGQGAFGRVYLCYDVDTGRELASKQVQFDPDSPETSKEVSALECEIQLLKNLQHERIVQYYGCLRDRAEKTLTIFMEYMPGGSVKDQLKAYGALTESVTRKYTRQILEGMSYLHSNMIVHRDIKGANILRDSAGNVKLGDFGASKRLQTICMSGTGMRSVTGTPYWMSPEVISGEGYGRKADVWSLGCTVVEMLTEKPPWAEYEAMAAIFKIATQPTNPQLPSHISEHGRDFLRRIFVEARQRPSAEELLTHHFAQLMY
Excerpt: (§1) The wash solution is then discarded.

Compound | Inhibition Results (Level)
CN[C@@H]1C[C@H]2O[C@@](C)([C@@H]1OC)n1c3ccccc3c3c4c(c5c6ccccc6n2c5c31)C(=O)NC4 [Staurosporine] | 2

same assay, conditions: kinase MAP3K3 (Part I, plate A1, Domain 0); inhibitor 90 uM

Inhibition Results (Level) | Compound
2 | Cn1cc(C2=C(c3cn(CCCSC(=N)N)c4ccccc34)C(=O)NC2=O)c2ccccc21 [Ro-31-8220]

same assay, conditions: kinase MAP3K3 (Part I, plate A1, Domain 0); inhibitor 100 uM

Compound | Inhibition Results (Level)
COc1cc2ncnc(Nc3cccc(Cl)c3)c2cc1OC [AG 1478] | 2
N#C/C(=C/c1ccc(O)c(O)c1)C(=O)NCc1ccccc1 [AG 490] | 2
O=c1c(O)c(-c2ccc(O)c(O)c2)oc2cc(O)cc(O)c12 [Quercetin] | 0
CC(=O)c1c(O)c(C)c(O)c(Cc2c(O)c3c(c(C(=O)/C=C/c4ccccc4)c2O)OC(C)(C)C=C3)c1O [Rottlerin (Mallotoxin)] | 2

Results, then the molecule that gave them:

Inhibition Results (Level) | Compound
2 | O=c1c(-c2ccc(O)cc2)coc2cc(O)cc(O)c12 [Genistein]
0 | Cn1cc(C2=C(c3cn(CCCSC(=N)N)c4ccccc34)C(=O)NC2=O)c2ccccc21 [Ro-31-8220]
2 | CC(C)(C)n1nc(-c2ccc(Cl)cc2)c2c(N)ncnc21 [PP2]
2 | O=S(=O)(NCCNC/C=C/c1ccc(Br)cc1)c1cccc2cnccc12 [H-89]

same assay, conditions: kinase MAP3K3 (Part I, plate A1, Domain 0); inhibitor <3.7 mM

Inhibition Results (Level) | Compound
2 | O=c1c(-c2ccc(O)cc2)coc2cc(O)cc(O)c12 [Genistein]

biological target: T2, kinases of Table 5 (Homo sapiens, UniProt Q8IV63); assay: as above; format: biochemical; parameters: scale not given here; settings: kinase LOC51231 (Part I, plate C12, Domain 1); inhibitor 21.5 uM
T2 sequence (Q8IV63 1-474): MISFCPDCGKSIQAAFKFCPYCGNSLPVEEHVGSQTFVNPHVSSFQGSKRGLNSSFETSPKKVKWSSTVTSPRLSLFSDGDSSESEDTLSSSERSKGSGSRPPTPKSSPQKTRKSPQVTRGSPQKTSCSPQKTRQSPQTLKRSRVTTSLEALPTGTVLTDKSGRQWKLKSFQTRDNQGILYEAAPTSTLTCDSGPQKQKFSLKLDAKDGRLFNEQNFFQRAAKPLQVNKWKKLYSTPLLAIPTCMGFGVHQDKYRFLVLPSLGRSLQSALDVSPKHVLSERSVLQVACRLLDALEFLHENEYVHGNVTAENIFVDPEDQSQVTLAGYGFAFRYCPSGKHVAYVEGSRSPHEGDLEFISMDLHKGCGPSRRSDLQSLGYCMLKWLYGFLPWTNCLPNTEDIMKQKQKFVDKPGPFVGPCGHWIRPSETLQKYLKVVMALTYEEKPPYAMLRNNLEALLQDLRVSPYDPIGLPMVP
Excerpt: as §1

Compound | Inhibition Results (Level)
CN[C@@H]1C[C@H]2O[C@@](C)([C@@H]1OC)n1c3ccccc3c3c4c(c5c6ccccc6n2c5c31)C(=O)NC4 [Staurosporine] | 0

same assay, conditions: kinase LOC51231 (Part I, plate C12, Domain 1); inhibitor 90 uM

Inhibition Results (Level) | Compound
0 | Cn1cc(C2=C(c3cn(CCCSC(=N)N)c4ccccc34)C(=O)NC2=O)c2ccccc21 [Ro-31-8220]

same assay, conditions: kinase LOC51231 (Part I, plate C12, Domain 1); inhibitor 100 uM

Compound | Inhibition Results (Level)
COc1cc2ncnc(Nc3cccc(Cl)c3)c2cc1OC [AG 1478] | 0
N#C/C(=C/c1ccc(O)c(O)c1)C(=O)NCc1ccccc1 [AG 490] | 0
O=c1c(O)c(-c2ccc(O)c(O)c2)oc2cc(O)cc(O)c12 [Quercetin] | 0
CC(=O)c1c(O)c(C)c(O)c(Cc2c(O)c3c(c(C(=O)/C=C/c4ccccc4)c2O)OC(C)(C)C=C3)c1O [Rottlerin (Mallotoxin)] | 0

Continued, values first:

Inhibition Results (Level) | Compound
2 | O=c1c(-c2ccc(O)cc2)coc2cc(O)cc(O)c12 [Genistein]
2 | Cn1cc(C2=C(c3cn(CCCSC(=N)N)c4ccccc34)C(=O)NC2=O)c2ccccc21 [Ro-31-8220]
0 | CC(C)(C)n1nc(-c2ccc(Cl)cc2)c2c(N)ncnc21 [PP2]
2 | O=S(=O)(NCCNC/C=C/c1ccc(Br)cc1)c1cccc2cnccc12 [H-89]

same assay, conditions: kinase LOC51231 (Part I, plate C12, Domain 1); inhibitor <3.7 mM

Inhibition Results (Level) | Compound
0 | O=c1c(-c2ccc(O)cc2)coc2cc(O)cc(O)c12 [Genistein]

biological target: T3, kinases of Table 5 (Homo sapiens, UniProt Q08881); assay: as above; format: biochemical; parameters: scale not given here; settings: kinase ITK (Part I, plate E4, Domain 0); inhibitor 100 uM
T3 sequence (Q08881 1-620): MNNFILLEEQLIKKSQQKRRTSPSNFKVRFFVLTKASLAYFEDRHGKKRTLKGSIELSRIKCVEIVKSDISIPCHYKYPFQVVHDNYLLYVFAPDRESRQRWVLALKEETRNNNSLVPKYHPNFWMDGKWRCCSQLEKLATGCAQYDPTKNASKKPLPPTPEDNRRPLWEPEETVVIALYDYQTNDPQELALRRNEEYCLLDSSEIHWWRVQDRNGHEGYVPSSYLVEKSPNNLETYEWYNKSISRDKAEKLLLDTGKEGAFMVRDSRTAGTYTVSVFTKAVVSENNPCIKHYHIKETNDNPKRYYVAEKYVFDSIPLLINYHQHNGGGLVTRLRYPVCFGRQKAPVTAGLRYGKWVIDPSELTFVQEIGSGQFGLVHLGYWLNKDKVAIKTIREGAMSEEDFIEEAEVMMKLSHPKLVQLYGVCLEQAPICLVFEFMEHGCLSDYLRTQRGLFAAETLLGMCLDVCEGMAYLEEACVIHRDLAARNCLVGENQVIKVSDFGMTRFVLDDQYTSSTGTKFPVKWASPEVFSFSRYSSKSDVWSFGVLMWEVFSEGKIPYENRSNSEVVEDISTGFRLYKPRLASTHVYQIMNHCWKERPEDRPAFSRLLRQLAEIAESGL
Excerpt: as §1

Compound | Inhibition Results (Level)
COc1cc2ncnc(Nc3cccc(Cl)c3)c2cc1OC [AG 1478] | 1
N#C/C(=C/c1ccc(O)c(O)c1)C(=O)NCc1ccccc1 [AG 490] | 1
O=c1c(O)c(-c2ccc(O)c(O)c2)oc2cc(O)cc(O)c12 [Quercetin] | 0
CC(=O)c1c(O)c(C)c(O)c(Cc2c(O)c3c(c(C(=O)/C=C/c4ccccc4)c2O)OC(C)(C)C=C3)c1O [Rottlerin (Mallotoxin)] | 1

Now from value to molecule:

Inhibition Results (Level) | Compound
2 | O=c1c(-c2ccc(O)cc2)coc2cc(O)cc(O)c12 [Genistein]
2 | Cn1cc(C2=C(c3cn(CCCSC(=N)N)c4ccccc34)C(=O)NC2=O)c2ccccc21 [Ro-31-8220]
2 | CC(C)(C)n1nc(-c2ccc(Cl)cc2)c2c(N)ncnc21 [PP2]
1 | O=S(=O)(NCCNC/C=C/c1ccc(Br)cc1)c1cccc2cnccc12 [H-89]

biological target: T4, kinases of Table 5 (Homo sapiens, UniProt Q9UHD2); assay: as above; format: biochemical; parameters: scale not given here; settings: kinase TBK1 (Part I, plate G1, Domain 0); inhibitor 100 uM
T4 sequence (Q9UHD2 1-729): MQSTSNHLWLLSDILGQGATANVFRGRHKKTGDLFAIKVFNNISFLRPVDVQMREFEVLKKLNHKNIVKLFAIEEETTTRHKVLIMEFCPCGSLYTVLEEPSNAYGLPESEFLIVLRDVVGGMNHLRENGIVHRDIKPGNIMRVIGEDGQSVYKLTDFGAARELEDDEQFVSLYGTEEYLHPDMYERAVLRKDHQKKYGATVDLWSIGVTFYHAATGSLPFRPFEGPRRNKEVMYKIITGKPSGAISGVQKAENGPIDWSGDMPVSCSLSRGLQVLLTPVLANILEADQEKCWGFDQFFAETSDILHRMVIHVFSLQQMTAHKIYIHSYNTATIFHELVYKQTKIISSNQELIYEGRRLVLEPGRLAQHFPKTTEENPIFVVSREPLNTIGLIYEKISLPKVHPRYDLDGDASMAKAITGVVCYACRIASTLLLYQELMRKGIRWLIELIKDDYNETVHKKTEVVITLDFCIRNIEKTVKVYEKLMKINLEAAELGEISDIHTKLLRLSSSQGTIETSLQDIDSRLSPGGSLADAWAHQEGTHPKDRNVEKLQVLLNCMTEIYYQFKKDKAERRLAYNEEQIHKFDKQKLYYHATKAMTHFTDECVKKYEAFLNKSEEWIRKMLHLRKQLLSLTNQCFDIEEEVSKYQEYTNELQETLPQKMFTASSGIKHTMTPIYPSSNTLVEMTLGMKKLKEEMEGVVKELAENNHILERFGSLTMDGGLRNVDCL
Excerpt: as §1

Compound | Inhibition Results (Level)
COc1cc2ncnc(Nc3cccc(Cl)c3)c2cc1OC [AG 1478] | 2
N#C/C(=C/c1ccc(O)c(O)c1)C(=O)NCc1ccccc1 [AG 490] | 2
O=c1c(O)c(-c2ccc(O)c(O)c2)oc2cc(O)cc(O)c12 [Quercetin] | 0
CC(=O)c1c(O)c(C)c(O)c(Cc2c(O)c3c(c(C(=O)/C=C/c4ccccc4)c2O)OC(C)(C)C=C3)c1O [Rottlerin (Mallotoxin)] | 1

Results, then the molecule that gave them:

Inhibition Results (Level) | Compound
2 | O=c1c(-c2ccc(O)cc2)coc2cc(O)cc(O)c12 [Genistein]
2 | Cn1cc(C2=C(c3cn(CCCSC(=N)N)c4ccccc34)C(=O)NC2=O)c2ccccc21 [Ro-31-8220]
1 | CC(C)(C)n1nc(-c2ccc(Cl)cc2)c2c(N)ncnc21 [PP2]
2 | O=S(=O)(NCCNC/C=C/c1ccc(Br)cc1)c1cccc2cnccc12 [H-89]
